Results from patent publication US10398786B2, “Therapeutic gene cocktail for heart regeneration” (Academia Sinica, priority 2015, dated 2019).

Test system: adult CMs of OSKM transgenic mice
Test: doxycycline injection into OSKM transgenic mice, adult CMs isolated after two days
Type: in vivo
Conditions: two days after doxycycline treatment
Experimental: Reverse transcription were completed following the protocol of SuperScript III Reverse-Transcriptase kit (Life Technology). SYBR Green Real-Time PCR master mixes were used to quantify each gene expression, and GAPDH were performed for normalization.
Adult ventricular CMs were isolated from male mice on a Langendorff apparatus. The hearts were removed from the anaesthetized mice after heparinization for 10 mins, and then were cannulated for retrograde perfusion with Ca^2+-free Tyrode solution (NaCl 120.4 mmol/L, KCl 14.7 mmol/L, KH2PO4 0.6 mmol/L, Na2HPO4 0.6 mmol/L, MgSO4 1.2 mmol/L, HEPES 1.2 mmol/L, NaHCO3 4.6 mmol/L, Taurine 30 mmol/L, BDM 10 mmol/L, Glucose 5.5 mmol/L).
After 3-minutes of perfusion, the solution mixed with Ca^2+-free Tyrode solution supplemented with collagenase B (0.4 mg/g body weight, Roche), collagenase D (0.3 mg/g body weight, Roche) and protease type XIV (0.05 mg/g body weight, Sigma-Aldrich) were used to digest the hearts. After digestion, the ventricles were cut from the cannula and teased into small pieces in the digestion solution neutralized by the Ca^2+-free Tyrode solution containing 10% FBS. Adult CMs were dissociated from the digested tissues by gentle pipetting and collected after removing the un-digested tissues by filtering through a nylon mesh of 250 μm pore size. […]

Structure (SMILES): C[C@H]1c2cccc(O)c2C(=O)C2=C(O)[C@]3(O)C(=O)C(C(N)=O)=C(O)[C@@H](N(C)C)[C@@H]3[C@@H](O)[C@@H]21 [doxycycline]
- H3P+ population of adult CMs relative to control: 2 ×
